Test system: P. falciparum 3D7 growth, pLDH absorbance
Assay: blood-stage malaria parasite growth potency – strain 3D7, dose response (AID 2305)

Compound	IC50 [nM]
CC(C)COc1ccc(Cl)cc1Cc1ccc(-c2nc3c(F)c(F)ccc3[nH]2)o1	940
O=C(NNC(=O)c1ccc(CCN2CCC(c3nc(COCC(F)(F)F)c(-c4ccc(F)cc4)o3)CC2)cc1)Nc1ccc(Oc2ccccc2)cc1	710
O=C(CCN1CCCCC1)Nc1ccc(Nc2nccc(NCC(O)c3ccccc3)n2)cc1 (stereo unspecified)	720
Cc1[nH]c2cc(Cl)ccc2c1C1=CCN(CCCCC2(C)C(=O)Nc3c(F)cccc32)CC1 (stereo unspecified)	840
O=C(CCc1cnc[nH]1)Nc1cccc(-c2cccc(-c3nc4ccc(C(F)(F)F)cc4[nH]3)c2)c1	130
COc1ccc2cc(C(=O)Nc3ccc4c(c3)CCN(C3CCC3)CC4)ccc2c1	840
N#Cc1ccc(/C=C/C(=O)NCCCCCN2CCCN(C(=O)Nc3ccc(Cl)c(C(F)(F)F)c3)CC2)cc1	440
CC(=O)Nc1nc(C(=O)Nc2ccc(-c3ccc(-c4nc5ccccc5[nH]4)cc3)cc2)cs1	150
CCN(CC)C(=NCCCCCCN=C(NC(N)=NCc1ccc(Cl)cc1)N(CC)CC)NC(N)=NCc1ccc(Cl)cc1	230
COc1ccc2ncc(C#N)c(CCN3CCC(NCc4ccc5c(c4)OCCO5)CC3)c2c1	910
COc1cccc(O)c1CN1CCC2(CCCN(Cc3ccc(F)cc3)C2)C1 (stereo unspecified)	870
CN(C)CCC1CCN(CCS(=O)(=O)c2cccc(Nc3ccc(-c4ccsc4)cn3)c2)CC1	940
Nc1ncnc2nc(-c3ccc(F)cc3)cc(-c3ccc(NC(=O)c4ccccc4)cc3)c12	640
CS(=O)(=O)Nc1ccc2[nH]cc(C3CCN(CCCCCNC(=O)/C=C/c4ccc(Cl)c(Cl)c4)CC3)c2c1	740
CNc1ccc(CNCc2cccc(-c3ccc(-c4nc5ccccc5[nH]4)cc3)c2)cc1	300
CC(=O)c1ccc(NC(=O)NNC(=O)c2ccc(CCN3CCC(c4nc(COCC(F)(F)F)c(-c5ccc(F)cc5)o4)CC3)cc2)cc1	830
Cc1ccc(-c2cc(C(=O)Nc3ccc(S(=O)(=O)N4CC(C)OC(C)C4)cc3)[nH]n2)c(O)c1 (stereo unspecified)	610
c1ccc(CN2CCCN(c3ccc4c(c3)CCN(Cc3ccc(-c5ncc[nH]5)cc3)CC4)CC2)cc1	760
O=C1CCCN1CCCNCc1ccc(-c2ccc(-c3nc4ccc(F)cc4[nH]3)s2)cc1	900
O=C(Nc1cccc(C(F)(F)F)c1)Nc1ccc(F)c([N+](=O)[O-])c1	700
Cc1cccc2[nH]c(-c3cccc(-c4ccc(NC(=O)C(C)C(=O)NC(C)C)cc4)c3)nc12 (stereo unspecified)	1000
Cc1ccc(C(=O)Nc2ccc(Nc3ccnc4cc(-c5ccccn5)ccc34)cc2O)cc1	110
c1ccc2c(NCCOCCNc3c4ccccc4nc4ccccc34)c3ccccc3nc2c1	880
CCN1C(=O)N(CCC(C)C)C2(CCN(Cc3ccc(OC)cc3O)CC2)C1=O	870

Compound	IC50 [nM]
COc1cc(NC(=O)NC(CCN2CCC3(CCc4ccccc43)CC2)c2ccc(Cl)c(Cl)c2)cc(OC)c1OC (stereo unspecified)	680
COc1cc2c(cc1S(=O)(=O)c1ccc(OCc3ccc(Cl)cc3)cc1)CCN(Cc1ccc(NC(C)=O)s1)CC2	920
CC(C)CCN1CCCN(Cc2cccc(NC(=O)c3cc4ccccc4s3)c2)CC1	920
Cc1cc(NC(=O)Nc2ccc(N(C)C)cc2)c2cc(Cl)ccc2n1	860
CCCN(c1ccc(O)c(CN2CCCCC2)c1)c1ccc([N+](=O)[O-])cn1	800
c1ccc(C(OCCC2CCN(Cc3cccnc3)CC2)c2ccccc2)cc1	820
O=C(n1c(-c2cc3ccccc3n2C(=O)C(F)(F)F)cc2ccccc21)C(F)(F)F	880
O=C(NCCOc1ccccc1)[C@H](Cc1ccccc1)Nc1ccnc(NCC2CCCCC2)n1	1200
Nc1nc(N)c2c(Cc3ccc(Br)cc3)cccc2n1	770
O=C(O)c1cc(OCC(O)COc2ccc(O)c(C(=O)O)c2)ccc1O	230
CCN(CC)C(=O)c1cccc(/C=C/c2ccc(-c3c(C)[nH]c(C)c(Cl)c3=O)cc2)c1	260
C[C@@H](NC(C)(C)C)[C@H](O)c1ccc(Cl)c(C(F)(F)F)c1	740
Cc1cc(N[C@@H](CC(C)C)C(=O)NC2CCCC2)nc(NCC2CCCCC2)n1	860
Cc1cc(O)c2c3c1C(=O)C=C1C3c3c(c(O)cc(O)c3C(=O)C1(C)C)C2=O (stereo unspecified)	1680
C[C@@H]1CN(C(c2cccc(O)c2)c2cccc(C(=O)N(C)c3cccc(F)c3)c2)[C@@H](C)CN1C(c1cccc(O)c1)c1cccc(C(=O)N(C)c2cccc(F)c2)c1 (stereo partly specified)	920
COc1ccc2c(NN=Cc3cccnc3)ccnc2c1	680
COCCSc1ccc(CC(C)NCC(O)c2cccc(Cl)c2)cc1 (stereo unspecified)	760
c1cc(-c2ccc(CN3CCCC3)cc2)cc(-c2nc3ccccc3[nH]2)c1	690
NC(=O)CNC(=O)CCCN=C(N)N	170
Cc1cccc2[nH]c(-c3ccc(-c4ccc(CNCCN5CCNCC5)cc4)s3)nc12	1150
CN(CCCNc1ccc(C(=O)Nc2ccc(C(F)(F)F)cc2)cc1[N+](=O)[O-])Cc1ccccc1	230
CCN(CC)CCCC(C)Nc1ccnc2ccc(OC)cc12 (stereo unspecified)	820
CN(C)Cc1ccc(-c2cc3c(Nc4ccc(OCc5cccc(F)c5)c(Cl)c4)ncnc3s2)[nH]1	820
O=C(Nc1ccc(Cl)cc1F)N[C@H]1CCN(CCCCCNC(=O)[C@@H]2C[C@H]2c2ccc(Cl)c(Cl)c2)C1	1090

Compound	IC50 [nM]
COc1ccc2c(c1)CCN(CCN1CCC(CNC(=O)c3ccc(-c4ccc(C#N)cc4)cc3)CC1)C2	620
CCCCCCc1cc2cc(-c3nc(-c4ccc(OC)cc4)cs3)c(=O)oc2cc1O	820
CC(C)(C)c1ccc(OCC(=O)NC2CCN(c3ccnc4cc(Cl)ccc34)C2)cc1 (stereo unspecified)	130
CC(C)NCc1cccc(-c2ccc(-c3nc4ccccc4[nH]3)cc2)c1	760
O=C(c1ccc(O)c(-c2cc(Cl)cc(Cl)c2)c1)N1CCCC1	1000
Cc1ccc(F)cc1S(=O)(=O)N1CCCCC(c2ccc(C(F)(F)F)cc2)=N1	940
COc1cc2c(cc1OCCN1CCC(N)CC1)N(C(=O)/C=C/c1ccccc1Cl)CC2	1120
CC(=O)Nc1ccc(Cl)c(Cl)c1	40
Cc1cc(-c2ccc3c(c2)CC[C@@H](N[C@@H](C)c2ccccc2)C3)cnc1N	1730
CCCCCc1ccc(NC(=O)Nc2ccc(Cn3ncc(N4CCCNCC4)c(Cl)c3=O)cc2)cc1	1140
Cc1cc(CNCCCCCCNCc2ccc(Cl)cc2)ccc1O	820
COc1ccc2nccc(N3CCC(SCCNS(=O)(=O)c4ccc5c(c4)NC(=O)CS5)C3)c2n1 (stereo unspecified)	1580
COc1ccc(NC(=O)/C=C/c2ccc(Cl)c(C(F)(F)F)c2)cc1OCCN(C(C)C)C(C)C	630
COc1cc2nc(N3CCN(C(=O)c4ccco4)CC3)nc(NCc3ccccc3)c2cc1OC	170
COc1ccc(-c2cccc(NC(=O)c3ccc(Cl)cc3)c2)cc1CN1CCC(O)CC1	790
CCCCCCn1c(Sc2ccc(C#N)c([N+](=O)[O-])c2)nnc1-c1ccc(N(C)C)cc1	1070
COc1ccc(CNCc2ccc(-c3cccc(-c4nc5c(C)cccc5[nH]4)c3)cc2)cc1	130
COc1cc(C=Cc2ccc3ccccc3n2)cc(Br)c1OCC(=O)N(C)C	1100
COc1cccc(CCNCc2ccc(-c3cccc(CNC4CCCC4)c3)cc2)c1	730
COc1ccc(CC(=O)NC(CCN2CCC3(CC2)CN(S(C)(=O)=O)c2ccccc23)c2ccc(Cl)c(Cl)c2)cc1OC (stereo unspecified)	1000
Nc1cc(-c2ccc(Br)cc2O)nc2ccccc12	620
C[C@H](NC(=O)c1c(CN2CCC(NC(=O)CC(C)(C)C)CC2)c(-c2cccs2)nc2ccccc12)C1CCCCC1	950
CC(C)C[C@H](NC(=O)c1ccc(OCCN2CCOCC2)cc1)C(=O)N[C@H](/C=N/N(C)C(=O)c1ccccc1)CCc1ccccc1	270
COc1ccc2ncc(C#N)c(CCN3[C@@H]4CC[C@H]3CC(NCc3ccc5c(n3)NC(=O)CS5)C4)c2c1 (stereo partly specified)	810

Compound	IC50 [nM]
CC(=O)NCCNc1nccc(N2CCc3ncnc(Nc4ccc(OCc5cccc(F)c5)c(Cl)c4)c3C2)n1	130
O=[N+]([O-])c1cccc(-n2nc(NCc3ccc(Cl)cc3)nc2-c2ccc(F)c(C(F)(F)F)c2)c1	240
CCOc1ccc(CNCCCCCCNCc2ccc(OCC)c3ccccc23)c2ccccc12	450
CCc1c(CCNCCCCCCNC(C)(C)Cc2ccc3c(c2CC)OCO3)ccc(OC)c1OC	930
O=C(Nc1ccc(-c2ccc(-c3nc4ccccc4[nH]3)s2)cc1)Nc1ccc(Cl)c(Cl)c1	160
CCNc1cc(C(=O)N[C@@H](Cc2ccc(F)c(F)c2)[C@H](O)CNCc2cccc(OC)c2)cc(N2CCCCS2(=O)=O)c1	750
CN(CCN(C)C(=O)NCc1ccccc1)C(=O)NCc1ccccc1	930
OC(COCc1ccc(-c2ccccc2)cc1)CN1CCCCC1 (stereo unspecified)	270
CC(C)C(C(=O)n1cc2c(ccc3nc(N)nc(N)c32)n1)C(C)C	790
CCN(CC)CCCn1c(N)c(-c2nc3ccccc3[nH]2)c2nc(C#N)c(C#N)nc21	270
Oc1cc(Nc2ccnc3ccc(I)cc23)c(F)cc1Cl	1230
O=C(/C=C/c1ccc(Cl)c(Cl)c1)NCCCCCN1CCC(NC(=O)NC2CCCCC2)CC1	560
c1ccc(CN2CCC(NCc3ccccc3-c3cccc(CNC4CCCC4)c3)CC2)cc1	720
Cc1nc(-c2ccc(-c3ccc(C(=O)Nc4ccc(Cl)c(N5CCN(C)CC5)c4)cc3)c(C)c2)no1	740
CC(=O)C1(c2ccccc2)CCN(CCC2(c3ccc(Cl)c(Cl)c3)CN(C(=O)CC(C)C)CCO2)CC1 (stereo unspecified)	640
COc1ccc2nccc([C@@H](O)CN3CCC(NC(=O)Cn4nc(-c5ccc(C(F)(F)F)cc5)ccc4=O)CC3)c2c1	740
O=C(/C=C/c1ccc(Cl)c(Cl)c1)NCCCCCN1CCC(NC(=O)Nc2ccc(Cl)cc2F)CC1	310
COc1ccc(C)cc1NC(=O)CSc1nc2cccnc2n1C1CCCCC1	540
CCCC(C)N(Cc1ccc(C(C)(C)C)cc1)C(=O)c1cccc(C#N)c1 (stereo unspecified)	1050
Nc1nc(N)c2cc(Sc3ccc4ccccc4c3)ccc2n1	20
CNC(=O)c1cc(S(=O)(=O)N2CCN(c3ccccn3)CC2)c(C)s1	1160
COc1cccc(CNC(=O)c2cc(CNCc3ccccc3)ccc2-c2cccc(CNCc3ccc(-c4ccccc4)cc3)c2)c1	850
O=[N+]([O-])c1ccc(C=NO)nc1	870
CC(C)(CNCc1cccc(Oc2ccccc2)c1)c1nc(-c2ccc(Cl)c(O)c2)c(-c2ccnc(N)n2)[nH]1	760

— PubChem BioAssay AID2305 (GlaxoSmithKline (GSK), 2010)
